Here are results for one compound from publication PMC10558427, “A Theobromine Derivative with Anticancer Properties Targeting VEGFR‐2: Semisynthesis, in silico and in vitro Studies” (ChemistryOpen, 2023).

This assay addresses T1, VEGFR‐2 (Homo sapiens, UniProt P35968).
T1 construct: gene KDR
The assay can be described thus: in vitro VEGFR-2 inhibition assay (Human VEGFR ELISA kit). It is filed as biochemical. In general terms: ELISA stands for enzyme-linked immunosorbent assay.

T1 sequence (P35968 20-1356): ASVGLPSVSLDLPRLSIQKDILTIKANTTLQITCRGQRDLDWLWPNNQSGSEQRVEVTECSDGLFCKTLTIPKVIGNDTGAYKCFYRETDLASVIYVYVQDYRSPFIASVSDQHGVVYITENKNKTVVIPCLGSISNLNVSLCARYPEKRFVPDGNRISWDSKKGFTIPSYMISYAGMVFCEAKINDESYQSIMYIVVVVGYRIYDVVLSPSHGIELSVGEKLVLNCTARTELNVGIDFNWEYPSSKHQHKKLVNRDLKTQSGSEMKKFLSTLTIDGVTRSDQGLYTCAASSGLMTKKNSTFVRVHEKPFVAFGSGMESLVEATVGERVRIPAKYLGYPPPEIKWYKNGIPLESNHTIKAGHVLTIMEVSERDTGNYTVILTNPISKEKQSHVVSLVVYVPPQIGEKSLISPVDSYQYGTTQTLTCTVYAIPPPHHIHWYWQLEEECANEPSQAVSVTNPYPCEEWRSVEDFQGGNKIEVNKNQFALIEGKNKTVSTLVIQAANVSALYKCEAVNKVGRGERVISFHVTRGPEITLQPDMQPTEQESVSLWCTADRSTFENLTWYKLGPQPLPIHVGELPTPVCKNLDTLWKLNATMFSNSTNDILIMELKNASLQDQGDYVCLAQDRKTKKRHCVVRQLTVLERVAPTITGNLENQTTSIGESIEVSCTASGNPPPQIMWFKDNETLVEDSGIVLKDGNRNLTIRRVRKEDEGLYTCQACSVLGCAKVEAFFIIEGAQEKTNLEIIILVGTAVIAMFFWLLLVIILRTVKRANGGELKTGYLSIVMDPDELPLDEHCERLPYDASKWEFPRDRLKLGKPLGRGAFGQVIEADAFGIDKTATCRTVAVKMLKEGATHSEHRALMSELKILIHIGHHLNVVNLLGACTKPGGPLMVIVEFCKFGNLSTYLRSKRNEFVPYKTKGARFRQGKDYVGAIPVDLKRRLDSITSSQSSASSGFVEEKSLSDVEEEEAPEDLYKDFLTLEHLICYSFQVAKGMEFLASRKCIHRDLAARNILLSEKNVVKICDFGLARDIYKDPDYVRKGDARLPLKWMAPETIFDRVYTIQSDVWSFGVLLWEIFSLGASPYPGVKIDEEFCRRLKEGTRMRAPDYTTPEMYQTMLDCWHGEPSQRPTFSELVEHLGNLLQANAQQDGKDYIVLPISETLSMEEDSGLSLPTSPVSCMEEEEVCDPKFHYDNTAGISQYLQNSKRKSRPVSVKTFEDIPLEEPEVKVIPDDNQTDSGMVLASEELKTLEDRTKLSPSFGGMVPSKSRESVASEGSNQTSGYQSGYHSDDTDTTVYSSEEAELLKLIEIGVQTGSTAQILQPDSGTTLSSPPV

A word on the IC50: it is the midpoint of a concentration-inhibition curve. A lower IC50 goes with greater potency in that assay. The compound `Cn1cnc2c1c(=O)n(CC(=O)Nc1ccc(C(=O)Nc3ccc(F)cc3)cc1)c(=O)n2C` [T-1-AFPB, 4‐(2‐(3,7‐Dimethyl‐2,6‐dioxo‐2,3,6,7‐tetrahydro‐1H‐purin‐1‐yl)acetamido)‐N‐(4‐fluorophenyl)benzamide] came in with an IC50 of 69 ± 3 nM.
